Measurements: US12649907B2, “Alternate detergents for viral inactivation” (AMGEN INC., priority 2019, dated 2026)

Experiments:
[1] = as indicated by the Hampton Kit; cited from earlier work
[2] = system: xMuLV; type: cell-based, xenotropic murine leukemia virus; conditions: initial screen, 10× CMC or 10% w/v, 30 minutes, 15° C., 5% virus spike, PG4 cells
[3] = system: xMuLV; test: Temperature-dependent study, TCID50 LRV in host cell culture fluid matrices; type: cell-based, xenotropic murine leukemia virus; conditions: for LRV BiTE ® / LRV fusion protein / LRV mAb: 30 minutes, 5× CMC
[4] = system: xMuLV; test: Concentration study, lowest concentration to inactivate virus; type: cell-based, xenotropic murine leukemia virus; conditions: 15° C., 30-minute incubation
[5] = system: PRV; type: cell-based, pseudorabies herpes virus
[6] = system: xMuLV; test: Kinetic study of detergents, TCID50 LRV in host cell culture fluid matrices; type: cell-based, xenotropic murine leukemia virus
[7] = system: MMV; test: Concentration study, lowest concentration to inactivate virus; type: cell-based, mouse minute virus

CCCCCCCCCS[C@@H]1O[C@H](CO)[C@@H](O[C@H]2O[C@H](CO)[C@@H](O)[C@H](O)[C@H]2O)[C@H](O)[C@H]1O [n-Nonyl-b-D-thiomaltoside]
CMC [1]: 3.2 mM

CCCCCCCCCCOCCOCCOCCOCCOCCOCCOCCOCCOCCO [Anapoe C10E9]
Viral inactivation towards xMuLV (CPE) [2]: did not

O=C(CCC1CCCCC1)N(CCO)C[C@H](O)[C@@H](O)[C@H](O)[C@H](O)CO [C-HEGA ®-9]
CMC [1]: 108 mM

CCCCCCCCCO[C@@H]1O[C@H](CO)[C@@H](O[C@H]2O[C@H](CO)[C@@H](O)[C@H](O)[C@H]2O)[C@H](O)[C@H]1O [n-Nonyl-b-D-maltoside]
CMC [1]: 6 mM

CCCCCCCCCCCCOCCOCCOCCOCCOCCOCCOCCOCCOCCOCCO [Anapoe C12E10]
Viral inactivation towards xMuLV (CPE) [2]: did not

Sucrose monolaurate
CMC [1]: 0.3 mM

O=C(CCCC1CCCCC1)N(CCO)CC(O)C(O)C(O)C(O)CO (centres unmarked) [C-HEGA ®-10]
CMC [1]: 35 mM

n-Decanoylsucrose
CMC [1]: 2.5 mM

CCCCCCCCCCOP(=O)(O)OCCNC [FOS-MEA ®-10]
CMC [1]: 5.25 mM

CCCCCCCCS[C@@H]1O[C@H](CO)[C@@H](O[C@H]2O[C@H](CO)[C@@H](O)[C@H](O)[C@H]2O)[C@H](O)[C@H]1O [n-Octyl-β-D-Thiomaltopyranoside]
CMC [1]: 8.8 mM

CCCCCCCCCCCC[N+](C)(C)CCCC(=O)[O-] [DDMAB]
CMC [1]: 4.3 mM

C[C@H](CCC(=O)NCCC[N+](C)(C)CC(O)CS(=O)(=O)[O-])[C@H]1CC[C@H]2[C@@H]3[C@H](O)C[C@@H]4C[C@H](O)CC[C@]4(C)[C@H]3C[C@H](O)[C@]12C (some centres unmarked) [CHAPSO]
CMC [1]: 8 mM

CCCCCCCCCC(=O)N(CCO)C[C@H](O)[C@@H](O)[C@H](O)[C@H](O)CO [HEGA ®-10]
CMC [1]: 7 mM

CCCCCCCCCC(=O)N(C)C[C@H](O)[C@@H](O)[C@H](O)[C@H](O)CO [MEGA-10]
CMC [1]: 7 mM

CCCCCCO[C@@H]1O[C@H](CO)[C@@H](O)[C@H](O)[C@H]1O [n-Hexyl-b-D-glucopyranoside]
CMC [1]: 250 mM

CCCCCCCCOCCOCCOCCOCCO [Detergent C8E4]
CMC [1]: 8 mM

CCCCCCCNC(=O)OC[C@H]1O[C@H](OC)[C@H](O)[C@@H](O)[C@@H]1O [HECAMEG ®]
CMC [1]: 19.5 mM

CC(C)CC(CC(C)C)O[C@@H]1O[C@H](CO)[C@@H](O[C@H]2O[C@H](CO)[C@@H](O)[C@H](O)[C@H]2O)[C@H](O)[C@H]1O [2,6-Dimethyl-4-heptyl-b-D-malto-pyranoside]
CMC [1]: 27.5 mM

CCCCCCCCC(=O)N(C)C[C@H](O)[C@@H](O)[C@H](O)[C@H](O)CO [MEGA-9]
CMC [1]: 25 mM

CCCCCCCCO[C@@H]1O[C@H](CO)[C@@H](O)[C@H](O)[C@H]1O [n-Octyl-b-D-glucoside]
CMC [1]: 20 mM

CCCCCCCCCCCCCOCCOCCOCCOCCOCCOCCOCCOCCO [Anapoe C13E8]
Viral inactivation towards xMuLV (CPE) [2]: did not

CCCCCCCCCO[C@@H]1O[C@H](CO)[C@@H](O)[C@H](O)[C@H]1O [n-Nonyl-b-D-glucoside]
CMC [1]: 6.5 mM

CCCCCCCCCCCO[C@@H]1O[C@H](CO)[C@@H](O[C@H]2O[C@H](CO)[C@@H](O)[C@H](O)[C@H]2O)[C@H](O)[C@H]1O [n-Undecyl-b-D-maltoside]
CMC [1]: 0.59 mM

CCCCCCCCCCCCCC(=O)OC[C@@H](O)COP(=O)([O-])OCC[N+](C)(C)C [LysoFos ™ Choline 14]
CMC [1]: 0.036 mM

CCCCCCCCCCCCCOC1OC(CO)C(OC2OC(CO)C(O)C(O)C2O)C(O)C1O [n-Tridecyl-β-D-maltoside]
CMC [1]: 0.033 mM

O=C(CCCCC1CCCCC1)N(CCO)CC(O)C(O)C(O)C(O)CO (centres unmarked) [C-HEGA ®-11]
CMC [1]: 11.5 mM

CCCCCCCCCCCC(=O)OC[C@@H](O)COP(=O)([O-])OCC[N+](C)(C)C [LysoFos ™ Choline 12]
CMC [1]: 0.7 mM

OC[C@H]1O[C@H](O[C@H]2[C@H](O)[C@@H](O)[C@H](OCCCCCCC3CCCCC3)O[C@@H]2CO)[C@H](O)[C@@H](O)[C@@H]1O [CYMAL ®-6, 6-cyclohexyl-1-hexyl-β-D-maltoside]
CMC [1]: 0.56 mM

CCCCCCCCOCCOCCOCCOCCOCCOCCO [Hexaethylene glycol monooctyl ether]
CMC [1]: 10 mM

CCCCCCCCC(=O)N(CCO)C[C@H](O)[C@@H](O)[C@H](O)[C@H](O)CO [HEGA ®-9]
CMC [1]: 39 mM

CCCCCCCCCCOCCOCCOCCOCCOCCOCCO [Anapoe C10E6]
Viral inactivation towards xMuLV (CPE) [2]: did not

CCCCCCCC(=O)N(CCO)C[C@H](O)[C@@H](O)[C@H](O)[C@H](O)CO [HEGA ®-8]
CMC [1]: 109 mM

OC[C@H]1O[C@H](O[C@H]2[C@H](O)[C@@H](O)[C@H](OCCCCCC3CCCCC3)O[C@@H]2CO)[C@H](O)[C@@H](O)[C@@H]1O [CYMAL ®-5, 5-cyclohexylpentyl-β-D-maltoside]
LRV BiTE ® ([3]; 15° C.): −0.06 ± 0.69
LRV fusion protein ([3]; 15° C.): 0.62 ± 0.48
LRV mAb ([3]; 15° C.): 0.62 ± 0.50
increase in LRV at higher temperature (22° C.) ([3]; 22° C. versus 15° C.): ~1 log
LRV BiTE ® ([3]; 22° C.): 1.19 ± 0.29
LRV fusion protein ([3]; 22° C.): 1.01 ± 0.45
LRV mAb ([3]; 22° C.): 1.94 ± 0.52
Inactivation towards xMuLV at any temperature tested ([3]; in product matrices): did not yield significant inactivation
average LRV ([3]; process temperature of 15° C., average over modalities): 0.39
Cytopathic effects (CPE) at 2.5×CMC [4]: showed cytopathic effects (CPE)
Cytopathic effects (CPE) at 2.5×CMC [5]: showed cytopathic effects (CPE)
Clearance of xMuLV within 30 minutes ([6]; 15° C.): did not lead to robust clearance
LRV 30 s ([6]; BiTE ® #1, 15° C.): 0.19 ± 0.69
LRV 10 min ([6]; BiTE ® #1, 15° C.): 0.06 ± 0.58
LRV 30 min ([6]; BiTE ® #1, 15° C.): −0.06 ± 0.69
LRV 30 s ([6]; fusion protein #1, 15° C.): −0.06 ± 0.69
LRV 10 min ([6]; fusion protein #1, 15° C.): 0.31 ± 0.52
LRV 30 min ([6]; fusion protein #1, 15° C.): 0.62 ± 0.48
LRV 30 s ([6]; mAb #1, 15° C.): 0.25 ± 0.58
LRV 10 min ([6]; mAb #1, 15° C.): 0.12 ± 0.58
LRV 30 min ([6]; mAb #1, 15° C.): 0.62 ± 0.50
Cytopathic effects (CPE) at 2.5×CMC [7]: showed cytopathic effects (CPE)
CMC [1]: 5 mM

CCCCCCCS[C@@H]1O[C@H](CO)[C@@H](O)[C@H](O)[C@H]1O [N-heptyl-β-D-thioglucopyranoside, Heptyl-β-D-1-thioglucopyranoside]
LRV BiTE ® ([3]; 5° C.): ≥4.23 ± 0.33
LRV fusion protein ([3]; 5° C.): ≥4.07 ± 0.30
LRV mAb ([3]; 5° C.): ≥4.09 ± 0.25
LRV BiTE ® ([3]; 15° C.): ≥4.03 ± 0.18
LRV fusion protein ([3]; 15° C.): ≥4.16 ± 0.42
LRV mAb ([3]; 15° C.): ≥4.22 ± 0.41
Viral inactivation in the presence of therapeutic modalities ([3]; between 30 seconds and 30 minutes, temperatures as low as 5° C. and 15° C.): complete viral inactivation
Inactivation at 30 minutes at both 5° C. and 15° C. ([3]; mAb, BiTE ®, fusion protein matrices): complete inactivation
Cytopathic effects (CPE) at 2.5×CMC [4]: showed cytopathic effects (CPE)
Cytopathic effects (CPE) at 2.5×CMC [5]: showed cytopathic effects (CPE)
LRV 30 s ([6]; BiTE ® #1, 15° C.): ≥3.03 ± 0.18
LRV 10 min ([6]; BiTE ® #1, 15° C.): ≥3.03 ± 0.18
LRV 30 min ([6]; BiTE ® #1, 15° C.): ≥3.03 ± 0.18
LRV 30 s ([6]; fusion protein #1, 15° C.): ≥3.16 ± 0.42
LRV 10 min ([6]; fusion protein #1, 15° C.): ≥3.16 ± 0.42
LRV 30 min ([6]; fusion protein #1, 15° C.): ≥3.16 ± 0.42
LRV 30 s ([6]; mAb #1, 15° C.): ≥3.22 ± 0.41
LRV 10 min ([6]; mAb #1, 15° C.): ≥3.22 ± 0.41
LRV 30 min ([6]; mAb #1, 15° C.): ≥3.22 ± 0.41
Cytopathic effects (CPE) at 2.5×CMC [7]: showed cytopathic effects (CPE)
CMC [1]: 29 mM

CCCCCCCC(=O)N(C)C[C@H](O)[C@@H](O)[C@H](O)[C@H](O)CO [MEGA-8]
CMC [1]: 79 mM

CCCCCCCCCCO[C@@H]1O[C@H](CO)[C@@H](O[C@H]2O[C@H](CO)[C@@H](O)[C@H](O)[C@H]2O)[C@H](O)[C@H]1O [n-Decyl-b-D-maltoside]
CMC [1]: 1.8 mM

OC[C@H]1O[C@H](O[C@H]2[C@H](O)[C@@H](O)[C@H](OCCCC3CCCCC3)O[C@@H]2CO)[C@H](O)[C@@H](O)[C@@H]1O [CYMAL ®-3, 3-Cyclohexyl-1-Propyl-β-D-Maltoside]
CMC [1]: 34.5 mM

OC[C@H]1O[C@H](O[C@H]2[C@H](O)[C@@H](O)[C@H](OCCCCCCCC3CCCCC3)O[C@@H]2CO)[C@H](O)[C@@H](O)[C@@H]1O [CYMAL ®-7, 7-cyclohexyl-l-heptyl-β-D-maltoside]
CMC [1]: 0.19 mM

CCCCCCCC[N+](C)(C)CCCS(=O)(=O)[O-] [ZWITTERGENT ® 3-08]
CMC [1]: 330 mM

CCCCCCCCS[C@@H]1O[C@H](CO)[C@@H](O)[C@H](O)[C@H]1O [n-Octyl-β-D-Thioglucoside]
CMC [1]: 9 mM

CCCCCCCCOCCOCCOCCOCCOCCO [Detergent C8E5]
CMC [1]: 7.1 mM

CCCCCCCCCCCCO[C@@H]1O[C@H](CO)[C@@H](O[C@H]2O[C@H](CO)[C@@H](O)[C@H](O)[C@H]2O)[C@H](O)[C@H]1O [n-Dodecyl-b-D-maltoside]
CMC [1]: 0.17 mM

OC[C@H]1O[C@H](O[C@H]2[C@H](O)[C@@H](O)[C@H](OCCCCC3CCCCC3)O[C@@H]2CO)[C@H](O)[C@@H](O)[C@@H]1O [CYMAL ®-4, 4-Cyclohexyl-1-Butyl-β-D-Maltoside]
CMC [1]: 7.6 mM

C[C@H](CCC(=O)NCCC[N+](C)(C)CCCS(=O)(=O)[O-])[C@H]1CC[C@H]2[C@@H]3[C@H](O)C[C@@H]4C[C@H](O)CC[C@]4(C)[C@H]3C[C@H](O)[C@]12C [CHAPS]
CMC [1]: 8 mM
